Assay [1] is described as follows: Antimetastatic activity against human ES2 cells xenografted in mouse lung assessed as inhibition of tumor growth at 50 mg/kg/day, po for 6 days a week for 2 weeks. In kind it is functional. Conditions: ES-2, read-out: TGI. (A xenograft is tissue or cells of one species grown in another, often human tumour cells in immunodeficient mice.)
The next assay relates to H22. As to the kind of experiment: Antimetastatic activity against mouse H22 cells transplanted in mouse lung assessed as inhibition of tumor growth on the surface of lungs at 50 mg/kg/day, po for 6 days a week for 2 weeks. Format: functional. Conditions: read-out: TGI.
The target in assay [2] is Aminopeptidase N (Sus scrofa) (UniProt P15145). Kind of assay: Inhibition of aminopeptidase N.
Aminopeptidase N (Sus scrofa), sequence (P15145 whole entry, looked up): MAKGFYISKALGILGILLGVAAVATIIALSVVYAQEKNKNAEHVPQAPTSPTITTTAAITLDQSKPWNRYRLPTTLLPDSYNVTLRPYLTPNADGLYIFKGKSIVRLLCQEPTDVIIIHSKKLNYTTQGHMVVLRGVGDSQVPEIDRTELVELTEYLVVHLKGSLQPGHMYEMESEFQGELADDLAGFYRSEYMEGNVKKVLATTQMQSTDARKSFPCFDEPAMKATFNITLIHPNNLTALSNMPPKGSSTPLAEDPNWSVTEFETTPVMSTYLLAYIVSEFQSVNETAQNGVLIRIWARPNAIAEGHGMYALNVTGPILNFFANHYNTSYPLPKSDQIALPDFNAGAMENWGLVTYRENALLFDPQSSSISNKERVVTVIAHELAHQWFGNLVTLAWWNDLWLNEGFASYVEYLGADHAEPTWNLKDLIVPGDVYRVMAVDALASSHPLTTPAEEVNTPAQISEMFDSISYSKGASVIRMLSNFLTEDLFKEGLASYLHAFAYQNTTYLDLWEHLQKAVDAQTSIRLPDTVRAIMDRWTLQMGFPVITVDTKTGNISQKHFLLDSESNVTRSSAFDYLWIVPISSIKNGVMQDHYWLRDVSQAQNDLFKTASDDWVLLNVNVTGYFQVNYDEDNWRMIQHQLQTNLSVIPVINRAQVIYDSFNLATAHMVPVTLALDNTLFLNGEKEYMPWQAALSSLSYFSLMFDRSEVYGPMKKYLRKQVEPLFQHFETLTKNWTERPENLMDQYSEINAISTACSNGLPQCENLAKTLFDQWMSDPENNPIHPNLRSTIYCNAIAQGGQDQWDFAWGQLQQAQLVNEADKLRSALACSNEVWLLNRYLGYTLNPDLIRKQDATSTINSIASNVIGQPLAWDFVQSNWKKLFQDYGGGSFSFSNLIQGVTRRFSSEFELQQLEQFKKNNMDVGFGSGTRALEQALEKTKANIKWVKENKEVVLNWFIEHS
The next assay deals with HL-60. As to the kind of experiment: Antiproliferative activity against human HL60 cells after 48 hrs by MTT assay. Conditions: HL-60, 48 h. For orientation: Tetrazolium dyes change colour on reduction, which living cells bring about.
The next assay deals with K562. As to the kind of experiment: Antiproliferative activity against human K562 cells at 400 ug/ml after 48 hrs by MTT assay. Format: functional, cell-based.
A short description of assay [3]: Antimetastatic activity against human ES2 cells xenografted in mouse lung assessed as inhibition of tumor growth at 10 mg/kg/day, po for 6 days a week for 2 weeks. The following applies: ES-2, read-out: TGI. Format: functional.

The structures appear in SMILES notation. Activity calls are given as the source filed them. The calls are words filed in the database; no cut-off is given here.

For `CC(C)C[C@H](NC(=O)[C@@H](O)[C@H](N)Cc1ccccc1)C(=O)O` [UBENIMEX], the inhibition in vivo at 50 mg/kg/day in assay [1] worked out at 36.2%; in the assay with H22, 45.4%.

On to `COc1cc(C(=O)N[C@H]2CCC(=O)N(CC(=O)NO)C2=O)cc(OC)c1OC`, for which 3.1 µM corresponded to half-maximal inhibition in assay [2] (IC50).

In the assay on HL-60, `N[C@@H](Cc1ccccc1)C(=O)N[C@H]1CCC(=O)N(CC(=O)NO)C1=O` displayed an IC50 of 105 µM. Moreover, in the assay on K562, the outcome was inactive. Besides, the inhibition in vivo at 10 mg/kg/day in assay [3] amounted to 30.9%. In addition, the inhibition in vivo at 50 mg/kg/day in the assay with H22 was 72.9%.

In the assay with HL-60, `N[C@@H](Cc1ccc(O)cc1)C(=O)N[C@H]1CCC(=O)N(CC(=O)NO)C1=O` displayed an IC50 of 147 µM. Also, the inhibition in vivo at 50 mg/kg/day in the assay with H22 turned out to be 62.7%.

For orientation: IC50 means the concentration needed to halve the response being measured. Low values mean higher potency, high ones lower potency.

These data come from ChEMBL document CHEMBL1157052, “Novel cyclic-imide peptidomimetics as aminopeptidase N inhibitors. Structure-based design, chemistry and activity evaluation. II” (Eur J Med Chem, 2010).
